How the values were obtained:
[1] = test system: rat's running activity in the night; assay: Running-wheel activity in the night after intraperitoneal administration (Example 1); type: in vivo; conditions: ip, rats
Method: Rats (Wistar-Imamichi; 7-week-old) were kept in a cage equipped with a running wheel. The animals were kept under such lighting conditions that the lighting was initiated at 7:00 and it was stopped at 19:00, while the animals were allowed to freely eat diet and drink water. They were kept over 3 weeks without subjecting them to any treatment or they were not subjected to any treatment until they sufficiently habituated to the keeping environment or the cage.
These animals were treated by intraperitoneal administration of GABAB receptor agonist, SKF97541, in an amount of 1.0 mg/kg or 0.5 mg/kg at around 18:00. A group of these animals to which physiological saline had separately been administered was used as a control group. Regarding the quantity of running, the counts detected by a sensor equipped with a running wheel were inputted to a computer at intervals of 30 minutes to thus evaluate the accumulated counts in the night, which was defined to be the quantity of acts in the night. Thus, the relative rate of the accumulated count observed for the individual animal was calculated while the accumulated count observed for each animal prior to the treatment was assumed to be 1.

[2] = test system: intentional motions of rats; assay: Forced swimming test, strokes by the forelimbs (Example 2); type: in vivo, rat; conditions: 0.5 mg/kg intraperitoneal, 30 minutes to 3 hours after administration, versus saline control, FIG. 2
Method: A GABAB receptor agonist, SKF97541, was intraperitoneally administered to rats, which had been kept under the same conditions used in Example 1, in an amount of 0.5 mg/kg and these animals were put in water maintained at a temperature ranging from 35 to 37° C. after 30 minutes to 3 hours from the administration of the […]. […] The rats were forced to swim in the pool to determine the number of strokes by the forelimbs of these animals per 5 minutes. A group of these animals to which physiological saline had separately been administered was used as a control group.

[3] = test system: poriomaniac behavior of dog; assay: Night activity of a demented dog with poriomania, recorded by CCD camera (Example 5); type: in vivo
Method: A male Pomeranian of 11 years old was used. The dog was established to have been demented and to have suffered from poriomania. About 200 g of a canned feed for dogs (Maintenance Canned Beef available from Nippon Hills Colgate Company) per day was fed to this animal in two portions in the morning and evening. On the other hand, water was available ad libitum.
The experiment was conducted in the laboratory under controlled conditions of room temperature of about 22° C. The cage (150 cm×90 cm) was illuminated by infrared light and the activity of the experimental animal in the night was detected by a monochrome CCD camera. The traces of activity were recorded on a microcomputer every 10 minutes. The traces were recorded for 2 days before treatment, after the animal was maintained and acclimatized to the conditions, and the records were used as the pre-treatment data. The data recording started at about 18:00 and the activity was recorded for 800 minutes.
The migration time is the time of the migration of the animal during the experiment. The migration length is the distance of migration of the animal during the experiment. The start of poriomaniac behavior was defined as the start of migration came after the quiescent state of not less than 10 minutes and the end of the poriomaniac behavior was defined as the stop of migration which was confirmed to be maintained for […] 10 minutes. One incident of the poriomaniac behavior was defined as the behavior from the start to the end of the aforementioned migration. One episode means one incident of the poriomaniac behavior.

[4] = General symptoms in the similar dog experiment (Example 5); type: in vivo; conditions: similar experiment with GABA
[5] = test system: kainate receptor; conditions: rat; Narita et al. 1993; cited from earlier work
[6] = 150 mg powdered GABA in food at 18:00, post-treatment, 800 minutes recording

For `CP(=O)(O)CCCN` [SKF97541, 3-aminopropyl (methyl) phosphinic acid], the inhibition at 0.5 mg/kg ([1]; 0.5 mg/kg intraperitoneal at around 18:00, FIG. 1, read-out: inhibitory effect on quantity of running activity in the night, relative to the control group) was 40 to 60%, the inhibition at 1 mg/kg ([1]; 1.0 mg/kg intraperitoneal at around 18:00, estimated, FIG. 1, read-out: inhibitory effect on quantity of running activity in the night, relative to the control group) was about 70% and the “number of strokes by the forelimbs per 5 minutes” value [2] was “not reduced”.

For `NCCCC(=O)O` [GABA, γ-aminobutyric acid], the “change in each parameter compared to pre-treatment data” value ([3]; 150 mg of GABA) was “significant decrease”, the “mean duration time of each episode” value [3, 6] was 0.7 min and the migration length [3, 6] was 44.7 cm. For the same compound, the migration time [3, 6] was 1.4 min, the number of episodes [3, 6] was 2 and the general symptoms [4] was “no particular notable events were observed”.

For `C=C(C)[C@H]1CN[C@H](C(=O)O)[C@H]1CC(=O)O` [kainate], the “induction of running activity” value [5] is listed as “induced”.

In the case of `O=C1N=c2cc([N+](=O)[O-])c([N+](=O)[O-])cc2=NC1=O` [DNQX, 6,7-dinitroquinoxaline-2,3-dione], the “inhibition of running activity induced by kainate” value [5] is listed as “inhibited”.
